Tests used:
[1] = target: histone deacetylase (HeLa nuclear extracts); test: In vitro assay for inhibition of histone deacetylase (HDAC Fluorescent Activity Assay, Fluor de Lys); type: biochemical; details: HeLa nuclear extracts 60 μg/ml, 75 μM Fluor de Lys substrate
From the text: The in vitro assay for inhibition of histone deacetylase (see example C.1) measures the inhibition of HDAC enzymatic activity obtained with the compounds of formula (I).
The HDAC Fluorescent Activity Assay/Drug Discovery Kit of Biomol (cat.No: AK-500-0001) was used. The HDAC Fluorescent Activity Assay is based on the Fluor de Lys (Fluorogenic Histone deAcetylase Lysyl) substrate and developer combination. The Fluor de Lys substrate, comprises an acetylated lysine side chain. Deacetylation of the substrate sensitizes the substrate so that, in the second step, treatment with the Fluor de Lys developer produces a fluorophore.
HeLa nuclear extracts (supplier: Biomol) were incubated at 60 μg/ml with 75 μM of substrate. The Fluor de Lys substrate was added in a buffer containing 25 mM Tris, 137 mM. NaCl, 2.7 mM KCl and 1 mM MgCl2.6H2O at pH 7.4. After 30 min, 1 volume of the developer was added. The fluorophore was excited with 355 nm light and the emitted light (450 nm) was be detected on a fluorometric plate reader.
For each experiment, controls (containing HeLa nuclear extract and buffer), a blank incubation (containing buffer but no HeLa nuclear extract) and samples (containing compound dissolved in DMSO and further diluted in buffer and HeLa nuclear extract) were run in parallel. In first instance, compounds were tested at a concentration of 10^−5M. […] All sample were tested 4 times. In each test the blank value was substracted from both the control and the sample values. The control sample represented 100% of substrate deactylation. For each sample the fluorescence was expressed as a percentage of the mean value of the controls. […] Herein the effects of test compounds are expressed as pIC50 (the negative log value of the IC50-value) (see Table F-3).

[2] = test system: A2780 ovarian carcinoma cells; test: Determination of antiproliferative activity on A2780 cells (MTT); type: cell-based; details: Homo sapiens, 96 h, four days of incubation, read-out: Cellular activity pIC50 (converted)
Protocol: Cellular activity of the compounds of formula (I) was determined on A2780 tumour cells using a colorimetric assay for cell toxicity or survival (Mosmann Tim, Journal of Immunological Methods 65:55-63, 1983)(see example C.2).
All compounds tested were dissolved in DMSO and further dilutions were made in culture medium. Final DMSO concentrations never exceeded 0.1% (v/v) in cell proliferation assays. Controls contained A2780 cells and DMSO without compound and blanks contained DMSO but no cells. MTT was dissolved at 5 mg/ml in PBS. A glycine buffer comprised of 0.1 M glycine and 0.1 M NaCl buffered to pH 10.5 with NaOH (1 N) was prepared (all reagents were from Merck).
The human A2780 ovarian carcinoma cells (a kind gift from Dr. T. C. Hamilton [Fox Chase Cancer Centre, Pennsylvania, USA]) were cultured in RPMI 1640 medium supplemented with 2 mM L-glutamine, 50 μg/ml gentamicin and 10% fetal calf serum. Cells were routinely kept as monolayer cultures at 37° C. in a humidified 5% CO2 atmosphere. Cells were passaged once a week using a trypsin/EDTA solution at a split ratio of 1:40. All media and supplements were obtained from Life Technologies. Cells were free of mycoplasma contamination as determined using the Gen-Probe Mycoplasma Tissue Culture kit (supplier: BioMerieux).
Cells were seeded in NUNC™ 96-well culture plates (Supplier: Life Technologies) and allowed to adhere to the plastic overnight. Densities used for plating were 1500 cells per well in a total volume of 200 μl medium. After cell adhesion to the plates, medium was changed and drugs and/or solvents were added to a final volume of 200 μl. Following four days of incubation, medium was replaced by 200 μl fresh medium and cell density and viability was assessed using an MTT-based assay. To each well, 25 μl MTT solution was added and the cells were further incubated for 2 hours at 37° C. The medium was then carefully aspirated and the blue MTT-formazan product was solubilized by addition of 25 μl glycine buffer followed by 100 μl of DMSO. […] Within an experiment, the results for each experimental condition are the mean of 3 replicate wells. For initial screening purposes, compounds were tested at a single fixed concentration of 10^−6 M. For active compounds, the experiments were repeated to establish full concentration-response curves. For each experiment, controls (containing no drug) and a blank incubation (containing no cells or drugs) were run in parallel. The blank value was subtracted from all control and sample values. For each sample, the mean value for cell growth (in absorbance units) was expressed as a percentage of the mean value for cell growth of the control. […] Herein the effects of test compounds are expressed as pIC50 (the negative log value of the IC50-value)(see Table F-3).

p21 promoter = test: p21 induction capacity, in vivo method (tumour fluorescence in nude mice); design: key: inactive (no fluorescence measurable); weaker, identical or better than R306465; weaker, identical or better than R306465; weaker, identical or better than R306465; details: oral administration, daily during 6 days, 20-40 mpk
Protocol: A first method tests the capacity of compounds to induce p21 as the consequence of HDAC inhibition at the cellular level. […] The reporter gene is a fluorescent protein and the expression of the reporter gene is measured as the amount of fluorescent light emitted (see example C.6.a.). The second method is an in vivo method wherein mice are used for screening the pharmaceutical activity of a compound. The above described stably transformed tumour cells can be administered to mice in an amount sufficient to effect production of a tumour. After the tumour cells had sufficient time to form a tumour, a potentially active compound can be administered to the animals and the effect of said compound On the tumour cells is evaluated by measuring the expression of the reporter gene. […]
A selected clone was injected subcutaneous (10^7 cells/200 μl) into the flank of nude mice and a calliper measurable tumour was obtained after 12 days. […] Tumours were evaluated for fluorescence by the in-house developed Automated Whole Body Imaging System (Fluorescent stereomicroscope type Olympus® SZX12 equipped with a GFP filter and coupled to a CCD camera type IAI® CV-M90 controlled by a software package based on the IMAQ Vision Software from National Instruments®). […]

## O=C(NO)c1cnc(N2CCC(CNC(/C=C/c3ccccc3)CO)CC2)nc1 (stereo not drawn) [Compound 1]
[1]
  Enzyme activity pIC50: 9.0
[2]
  IC50: 25.1 nM
p21 promoter
  tumour fluorescence (p21 induction) ranked against R306465: better
